Test results taken from patent publication EP0937459A2, “Pharmaceutical compositions for the treatment of ischemic brain damage” (Sumitomo Pharmaceuticals Company, Limited, priority 1998, dated 1999).

Legend:
ischemic animal models = ischemic animal models in vivo; literature; cited from earlier work
cultured glial cells = conditions: Kempski et al., Stroke 19, 385-392, 1988; cited from earlier work
transient ischemic rats = test: Infarcted area in rats with transient ischemia (2 h middle cerebral artery occlusion, then reperfusion); type: in vivo; conditions: 1 mg/ml
Method: Male rats were anesthetized with halothane mixed with nitrous oxide. The cervical region was dissected to ligate the left external carotid artery and the left common carotid artery. Occlusion was induced for 2 hours in the control section at the origin of the middle cerebral artery by inserting a nylon thread through the left internal carotid artery to reach the left middle deutocerebral artery. Reperfusion through the middle cerebral artery was established by withdrawing the nylon thread. The test compound was intravenously given to the animals in a volume of 1 ml/kg at 30 minutes after the occlusion. As the test compound, a solution of Compound 1 (1 mg/ml) in 8% polyethylene glycol #400 was used. For control, the vehicle (8% polyethylene glycol #400) containing no active compound was used. The animals were decapitated 22 hours after reperfusion and the brain was removed. Coronal sections of 2 mm thick were prepared in the ipsilateral hemisphere from 3 mm anterior to 5 mm posterior of the bregma. The sections were stained with 2,3,5-triphenyltetrazolium chloride for photographing. The photographs were scanned with a scanner (GT-8000, Epson) for computer-based image analysis (software used, Ep Scan Mac 1. 40). The rate of the infarcted area of each section in the left hemisphere was analyzed by a computer (software used, NIH image 1.59). The pharmacological effect was evaluated by mean percentage of the infarcted areas in the five sections obtained in one rat.
(§1) Compound 2 was elucidated for the effect on the infarcted area in a manner similar to that of Example 1. The test compound was intraperitoneally given 30 minutes before the occlusion to the animals in a volume of 1 ml/kg. As the test compound, a solution of Compound 2 (1 mg/ml) in 8% polyethylene glycol #400 was used. For control, the vehicle (8% polyethylene glycol #400) containing no active compound was used.
Compound 3 was elucidated for the effect on the infarcted area in a manner similar to that of Example 1. […]

[1] = test system: rats with transient ischemia; test: Brain edema (brain water content) in rats with transient ischemia; type: in vivo
Method: Male rats were anesthetized with halothane mixed with nitrous oxide. The cervical region was dissected to ligate the left external carotid artery and the left common carotid artery. Occlusion was induced for 2 hours in the control section at the origin of the middle cerebral artery by inserting a nylon thread through the left internal carotid artery to reach the left middle deutocerebral artery. Reperfusion through the middle cerebral artery was established by withdrawing the nylon thread. The test compound was intravenously given to the animals an hour after the occlusion in a volume of 1 ml/kg. As the test compound, a solution of Compound 1 (0.3 mg/ml or 1 mg/ml) in 8% polyethylene glycol #400 was used. For control, the vehicle alone (8% polyethylene glycol #400) containing no active compound was used. The animals were decapitated 4 hours after reperfusion and the brain was removed. Coronal sections of 4 mm thick were prepared in the ipsilateral hemisphere from 1 mm anterior to 3 mm posterior of the bregma. After the wet weight (W) of each section was weighed, the section was dried in an oven at 110°C for 24 hours and then its dry weight (D) was weighed. The brain water content (WC) was calculated according to the following equation. WC = (W - D) / W x 100 [formula] In the normal control group, the brain water content was 79.9 ± 0.1% (mean ± standard error in 15 cases); however, by reperfusion following the occlusion, the brain water content in the control group increased to 83.3 ± 0.3% (mean + standard error in 15 cases).
as §1, with “brain edema” for “the infarcted area”, “4.” for “1.”, “intravenously” for “intraperitoneally”, “immediately after” for “30 minutes before”, “reperfusion” for “occlusion”
Compound 3 was elucidated for the effect on brain edema in a manner similar to that of Example 4. The test compound was intravenously given immediately after the reperfusion to the animals in a volume of 1 ml/kg. As the test compound, a solution of Compound 3 (0.3 mg/ml or 1 mg/ml) in 8% polyethylene glycol #400 was used. For control, the vehicle alone (8% polyethylene glycol #400) containing no active compound was used.

## CC(=O)Nc1nnc(S(N)(=O)=O)s1 [acetazolamide]
Ischemic animal models
  effect of preventing cerebral edema: no significant effect of preventing cerebral edema
Cultured glial cells
  cell swelling induced by acid loading: cell swelling was prevented

## Cc1cccc2c1cc(C(=O)N=C(N)N)n2C [Compound 2, 1,4-dimethyl-2-indoloylguanidine methanesulfonate]
Transient ischemic rats; 1 ml/kg intraperitoneally 30 minutes before the occlusion, mean ± standard error in 5 cases, control group 49.5 ± 4.1%, p<1%
  infarcted area observed in each section: 26.6 ± 3.1%
[1]; 1 mg/ml, 1 ml/kg intravenously immediately after the reperfusion, mean ± standard error in 11 cases, normal control 78.7 ± 0.1%, control group 81.9 ± 0.4%, no significant effect
  brain water content: 82.0 ± 0.4%

## Cn1c(C(=O)N=C(N)N)cc2ccccc21 [Compound 1, 1-methyl-2-indoloylguanidine methanesulfonate]
Transient ischemic rats; 1 ml/kg intravenously 30 minutes after the occlusion, 22 hours after reperfusion, mean ± standard error in 8 cases, control group 47.9 ± 3.6%, p<5%
  mean infarcted area observed in each section: 35.4 ± 3.1%
[1]; 0.3 mg/kg intravenously an hour after the occlusion, 4 hours after reperfusion, mean ± standard error in 16 cases, normal control 79.9 ± 0.1%, control group 83.3 ± 0.3%, p<1%
  brain water content: 82.6 ± 0.3%
[1]; 1 mg/kg intravenously an hour after the occlusion, 4 hours after reperfusion, mean ± standard error in 16 cases, normal control 79.9 ± 0.1%, control group 83.3 ± 0.3%, p<1%
  brain water content: 82.2 ± 0.3%

## N=C(N)NC(=O)c1cc2c(Cl)ccc3c2n1CCCCC3=O [Compound 3, N-(aminoiminomethyl)-5,6,7,8-tetrahydro-11-chloro-8-oxo-4H-azocino[3,2,1-hi]indole-2-carboxamide methanesulfonate monohydrate]
Transient ischemic rats; 1 ml/kg intraperitoneally immediately after the occlusion, mean ± standard error in 13 cases, control group 55.4 ± 2.1%, p<5%
  infarcted area observed in each section: 45.2 ± 2.2%
[1]; 0.3 mg/kg intravenously immediately after the reperfusion, mean ± standard error in 9 cases, normal control 79.2 ± 0.2%, control group 82.8 ± 0.3%, tendency
  brain water content: 82.4 ± 0.3%
[1]; 1 mg/kg intravenously immediately after the reperfusion, mean ± standard error in 11 cases, normal control 79.2 ± 0.2%, control group 82.8 ± 0.3%, tendency
  brain water content: 81.7 ± 0.4%

## N=C(N)NC(=O)c1nc(Cl)c(N)nc1N [amiloride]
Cultured glial cells
  cell swelling induced by acid loading: attenuated cell swelling
